Measurements taken from patent publication US20190358238A1, “ALLOSTERIC ANTAGONISTS OF GPRC6a AND THEIR USE IN MITIGATING PROTEINOPATHIES” (UNIVERSITY OF SOUTH FLORIDA, priority 2016, published 2019).
Entries after “also recorded” stand apart in the source; their conditions may differ.

Assays:
BE(2) M17 cells = assay: alpha synuclein expression in BE(2) M17 cells stably transfected with wild-type alpha synuclein; assay type: cell-based; conditions: 72 hours, relative to GAPDH
Method: FIG. 10. Shown are BE(2) M17 cells stably transfected with wild-type alpha synuclein (16 kDa) treated with GPRC6a antagonist drug 47661 for 72 hours. […] Statistical analysis was performed using One-way Anova with Fisher's LSD multiple comparison test as post hoc. (n=3 independent experiments).
BE(2) M17 cells were stably transfected with wild-type alpha synuclein (16 kDa) and treated with GPRC6a antagonist drug 47661 for 72 hours. Samples were run on a gel. […] Statistical analysis was performed using One-way Anova with Fisher's LSD multiple comparison test as post hoc.

primary neurons = assay: tau in primary neurons after 72 hours treatment; assay type: cell-based; conditions: 10-100 nM, endogenous tau, nanomolar efficacy
Method: (§1) FIG. 3A, FIG. 3B, FIG. 3C, FIG. 3D. C3H/htau cells treated with siRNA to GPRC6A show decreased tau expression compared to scrambled siRNA (FIG. 3A). GPRC6a allosteric antagonist Cpd#3 (Drug 47661) (0-250 tLM) decreases monomeric and high molecular weight (HMW) tau multimers (FIG. 3B) in C3H/htau cells. FIG. 3C-FIG. 3D show decreased tau in primary neurons after (Drug 47661) decreases tau at 10-100 nM. All treatments=72 hours (n=3 independent exp.).
Some of the compounds have 9-fold more selectivity for GPRC6a than our current compound in a FRET-based assay (H. Johansson, et al. J. Med. Chem. 2015, 58, 8938), and an excess of 50 derivatives to these current lead compounds will be analyzed. A tetracycline inducible “on” tau fusion-Dendra2 stable cell line will be used, which is a green-to-red irreversible photoswitchable fluorescent protein activated by UV-violet/blue light. We will induce tau expression with tetracycline (1 μg/mL) for 24 h, then photo convert tau dendra2-green with blue light (488 nm) for 10 minutes to tau-dendra2-red for monitoring kinetics of tau. […] We will treat cells with GPRC6a allosteric antagonists for 72 hours with continual red fluorescent output readings every 6 hours (553 nm ex and 573 nm em). […] We will use Biotek®@ Cytation™ 3 Cell Imaging Multi-Mode Reader located at Byrd Institute. […]

[1] = system: PS 19 tau (P301S) transgenic mice; assay: acute bolus injection into PS19 tau (P301S) transgenic mice, western blot after 72 hours; assay type: in vivo, mouse
Method: FIG. 4. GPRC6a allosteric antagonist impacts tau levels and modifies autophagy markers in PS 19 tau transgenic mice. PSI9 (P301S) mice (bottom left of panel) show tau AT8 accumulation received an acute bolus injection of vehicle on one hemisphere and the antagonist (Drug 47661, 78 ng) on the opposite hemisphere for 72 hours.
(§2) Some of the compounds have 9-fold more selectivity for GPRC6a than our current compound in a FRET-based assay (H. Johansson, et al. J. Med. Chem. 2015, 58, 8938), and an excess of 50 derivatives to these current lead compounds will be analyzed. A tetracycline inducible “on” tau fusion-Dendra2 stable cell line will be used, which is a green-to-red irreversible photoswitchable fluorescent protein activated by UV-violet/blue light. We will induce tau expression with tetracycline (1 μg/mL) for 24 h, then photo convert tau dendra2-green with blue light (488 nm) for 10 minutes to tau-dendra2-red for monitoring kinetics of tau. […] We will treat cells with GPRC6a allosteric antagonists for 72 hours with continual red fluorescent output readings every 6 hours (553 nm ex and 573 nm em). This assay will measure tau degradation kinetics over time (time 0 point at which photo switch occurs from tau-green to tau-red) (FIG. 5). Agents that govern tau biology will alter the rate of tau degradation (tau-red). Newly synthesize tau (tau-green) will fluoresce green to be measure on a separated channel. We will also co-label cells with DAPI nuclear stain to account for cell loss and nuclear chromatin changes. We will use Biotek®@ Cytation™ 3 Cell Imaging Multi-Mode Reader located at Byrd Institute. We will use a 96 well semi-high throughput platform with GPRC6a antagonist concentrations ranging from (10 nM-100 μM). We will also perform cell toxicity assays (Cyto Tox-ONE LDH Membrane Integrity Assay, Promega). We will perform western blot analysis in C3H/htau cells from GPRC6a antagonists that reduce tau levels more than 30% at 3 μM or below and with no more than 5-10% toxicity. We will measure autophagy related makers to determine the mechanism for tau reduction.

[2] = half-life of Drug 47661 in naive mice after IV injection; assay type: in vivo, mouse
Method: FIG. 9. Graphs show relative half-life of Drug 47661. Naïve mice were injected with 5 mg/kg of Drug 47661 IV. Serial submandibular bleeds were taken 15 min and 60 min post IV injection. […] (N=3).
The half-life of GPRC6A antagonist Drug 47661 was examined. Naïve mice were injected with 5 mg/kg of Drug 47661 by IV. Serial submandibular bleeds were taken 15 min and 60 min post IV injection. […] (N=3). Shown in FIG. 9 is a graph showing the relative half-life of Drug 47661.

C3H/htau cells = assay: tau expression in C3H/htau cells treated 72 hours, samples run on a gel; assay type: cell-based; conditions: for monomeric and high molecular weight (HMW) tau multimers: 72 hours
Method: as §1
FIG. 6. C3H/htau cells treated with GPRC6A antagonist show decreased tau expression compared to vehicle (dotted line and first lane in each well). All GPRC6a allosteric antagonists Drug 47661 (red), PF020 (blue), PF037 (black) (0-100 μM) decreased monomeric and high molecular weight (HMW) tau multimers in C3H/htau cells at different concentrations. All treatments=72 hours (n=3 independent exp.).
rTg4510 tau mice comprise of the tau P301L mutation which expresses in the forebrain and hippocampus (K. Santacruz, et al. Science 2005, 309, 476). […] Accumulation of ptau occurs largely between 3 and 9 mo of age. Additionally, high-molecular weight tau multimers/oligomers and nitrated tau also accumulate in rTg4510 tau transgenic mice compared to non-transgenic littermates (J. B. Hunt, Jr., et al. J. Neurosci. 2015, 35, 14842). […] In stably tau overexpressing HeLa cells (C3H/htau), siRNA to GPRC6a reduced receptor expression coupled with a reduction in tau […]. We will repress GPRC6a expression in the CNS with rAAV-shRNA-GPRC6a to reduce receptor signaling.
as §2
C3H/htau cells were treated for 72 hours with varying concentrations of GPRC6A antagonist Drug 47661, PF020, or PF037. Samples were run on a gel. […]

[3] = 78 ng bolus injection, western blot

CN(CC(=O)c1c(-c2ccccc2)[nH]c2ccccc12)CC(=O)N1CCOCC1 [Drug 47661, 2-(methyl(2-morpholino-2-oxoethyl)amino)-1-(2-phenyl-1H-indol-3-yl)ethan-1-one]
monomeric (16 kDa) and oligomeric (>75 kDa) alpha synuclein expression (BE(2) M17 cells): decreased
tau in primary neurons (primary neurons): reduced; also recorded: decreased tau
beclin 1 [1, 3]: increased
mTOR [1, 3]: decreased
p62 [1, 3]: decreased
tau expression (total tau) ([1]; 78 ng one-time bolus injection, entorhinal cortex, vs vehicle hemisphere): modestly reduced
clearance rate ([2]; 5 mg/kg IV (FIG. 9 legend)): 4.5 Lh/kg
half-life ([2]; mouse, blood, 5 mg/kg IV): 9.6 min
clearance ([2]; mouse, blood, 5 mg/kg IV, read-out: clearance rate (converted)): 75 mL/min/kg
Vd ([2]; mouse, blood, 5 mg/kg IV, read-out: volume of distribution): 1.07 L/kg
monomeric and high molecular weight (HMW) tau multimers (C3H/htau cells; 0-100 μM, vs vehicle, FIG. 6): decreased
monomeric and high molecular weight (HMW) tau multimers (C3H/htau cells; 0-250 tLM, FIG. 3B): decreases
clearance among monomeric, insoluble, and oligomeric tau (C3H/htau cells; micromolar efficacy): significant clearance

O=C(CN1CCCC(C(=O)N2CCOCC2)C1)c1c(-c2ccccc2)[nH]c2ccccc12 (stereo not drawn) [PF020, 2-(3-(morpholine-4-carbonyl)piperidin-1-yl)-1-(2-phenyl-1H-indol-3-yl)ethan-1-one]
monomeric and high molecular weight (HMW) tau multimers (C3H/htau cells; 0-100 μM, vs vehicle, FIG. 6): decreased

CN(CCN1CCOCC1)CC(=O)c1c(-c2ccccc2)[nH]c2ccccc12 [PF037]
monomeric and high molecular weight (HMW) tau multimers (C3H/htau cells; 0-100 μM, vs vehicle, FIG. 6): decreased
